Measurements published in US12054475B2, “Substituted heterocycles as aldehyde dehydrogenase inhibitors” (KayoThera Inc., priority 2021, dated 2024).
“And” between values parts separate entries of the source, which are not always exact repeats. Identical values can stand only once.

Columns and labels:
mALDH1a2 = mALDH1a2 (Mus musculus (Mouse), UniProt Q62148); assay: Aldh1a2 enzyme inhibition assay (recombinant enzyme, resorufin fluorescence); format: biochemical
Text: Recombinant enzyme and inhibitor added immediately before assay. Reaction rate measured by resorufin fluorescence.

[1] = test system: T3-MCA fibrosarcoma cell line allografts; assay: T3-MCA fibrosarcoma allograft study; format: in vivo, C57BL6 syngeneic mice
Description: In one allograft study, T3-MCA fibrosarcoma cell line allografts were implanted subcutaneously into C57BL6 syngeneic mice. […] Tumor volume were measured on day 8, 14, and 17 post inoculation for each group, and tumor mass were measured at the end of the study.
In another allograft study, T3-MCA fibrosarcoma cell line allografts were implanted subcutaneously into C57BL6 syngeneic mice.

hALDH1a2 [2] = target: T1, hALDH1a2 (Homo sapiens (Human), UniProt O94788); assay: Cell based assay: STRA6 mRNA by q-rtPCR in MCF7 cells expressing ALDH1a2; conditions: 20 hours incubation, read-out: IC50 (ALDH1a2), STRA6 mRNA levels
Description: (§1) MCF7 cells were stably transduced with lentiviral vectors encoding human ALDH1a1, ALDH1a2 or ALDH1a3 or Vector control and selected by puromycin to establish stable cultures that were verified for overexpression by western blotting and Aldefluor activity. Cells were plated into 6 cm plates in regular DMEM media supplement with […]. At the beginning of the assay, cells were washed with PBS for 5 minutes followed by addition of compound solvated into DMEM media with 10% FBS or corresponding DMSO controls, maintaining DMSO at a constant concentration of 0.1% across all samples. Following 20 hours of incubation at 37 C, cells were lysed and RNA was extracted using a Qiagen RNAeasy kit. cDNA was synthesized using the Superscript IV kit and retinoid activation was measured using STRA6 mRNA levels as a proxy as measured by q-rtPCR.

[3] = test system: T3-MCA fibrosarcoma cell line allografts; assay: Combination with anti-PD-1 in T3-MCA fibrosarcoma allografts; format: in vivo, C57BL6 syngeneic mice; conditions: for tumor growth as a single agent: 40 mg/kg daily equivalent, oral medicated diet, Day 9 to Day 25
Description: T3-MCA fibrosarcoma cell line allografts were implanted subcutaneously into C57BL6 syngeneic mice. […] Medicated diet was initiated at Day 9 after mice were randomized and continued until termination at Day 25. Anti-PD-1 antibody was administered by intraperitoneal injection at Day 11, 14, 18 and 21 by a 200 uL injection of a 1 mg/mL solution in saline. Tumor volume were measured on day 14, 18, 22, and 25 post inoculation for each group.

hALDH1a3 = hALDH1a3 (Homo sapiens (Human), UniProt P47895); assay: Cell based assay: STRA6 mRNA by q-rtPCR in MCF7 cells expressing ALDH1a3; conditions: 20 hours incubation, read-out: IC50 (Aldh1a3), STRA6 mRNA levels
Description: as §1

[4] = test system: K-Ras, p53 −/− undifferentiated pleiomorphic sarcoma cell line allografts; assay: K-Ras, p53 -/- undifferentiated pleiomorphic sarcoma allograft study; format: in vivo, C57BL6 syngeneic mice; conditions: single agent, 20 days; Compound 140 40 mg/kg intraperitoneal, MBE1.5 25 mg/kg daily equivalent in diet
Description: In another allograft study, K-Ras, p53 −/− undifferentiated pleiomorphic sarcoma cell line allografts were implanted subcutaneously into C57BL6 syngeneic mice. […] Tumor volume were measured on day 14, 17, and 24 post inoculation for each group, and tumor mass were measured at the end of the study.

hALDH1a2 [5] = target: T1, hALDH1a2; assay: Aldh1a2 enzyme inhibition assay (recombinant enzyme, resorufin fluorescence); format: biochemical
[6] = test system: primary tumors and metastasis; assay: Mouse xenograft models, ALDH1a3 inhibitor in conjunction with paclitaxel; format: in vivo; conditions: with chemotherapy agent paclitaxel
[7] = Pharmacokinetic profiling in mice
[8] = oral, 40 mg/kg once daily for twelve days

Chain of hALDH1a3 (P47895 whole entry): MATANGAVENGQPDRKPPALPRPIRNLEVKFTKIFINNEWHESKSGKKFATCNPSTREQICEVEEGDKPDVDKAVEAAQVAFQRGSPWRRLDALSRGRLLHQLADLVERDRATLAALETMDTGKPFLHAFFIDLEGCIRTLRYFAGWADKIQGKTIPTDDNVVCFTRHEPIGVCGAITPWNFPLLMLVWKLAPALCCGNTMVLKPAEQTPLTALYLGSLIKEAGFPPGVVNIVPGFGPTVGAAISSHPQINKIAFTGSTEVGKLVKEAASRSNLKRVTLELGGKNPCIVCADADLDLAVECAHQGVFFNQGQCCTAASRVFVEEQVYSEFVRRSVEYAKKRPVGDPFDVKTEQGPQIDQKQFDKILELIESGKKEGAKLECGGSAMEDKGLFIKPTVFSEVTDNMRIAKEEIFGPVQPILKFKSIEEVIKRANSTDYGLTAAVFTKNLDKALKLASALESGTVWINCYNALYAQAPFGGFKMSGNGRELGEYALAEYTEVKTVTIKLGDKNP
T1 sequence (O94788 whole entry): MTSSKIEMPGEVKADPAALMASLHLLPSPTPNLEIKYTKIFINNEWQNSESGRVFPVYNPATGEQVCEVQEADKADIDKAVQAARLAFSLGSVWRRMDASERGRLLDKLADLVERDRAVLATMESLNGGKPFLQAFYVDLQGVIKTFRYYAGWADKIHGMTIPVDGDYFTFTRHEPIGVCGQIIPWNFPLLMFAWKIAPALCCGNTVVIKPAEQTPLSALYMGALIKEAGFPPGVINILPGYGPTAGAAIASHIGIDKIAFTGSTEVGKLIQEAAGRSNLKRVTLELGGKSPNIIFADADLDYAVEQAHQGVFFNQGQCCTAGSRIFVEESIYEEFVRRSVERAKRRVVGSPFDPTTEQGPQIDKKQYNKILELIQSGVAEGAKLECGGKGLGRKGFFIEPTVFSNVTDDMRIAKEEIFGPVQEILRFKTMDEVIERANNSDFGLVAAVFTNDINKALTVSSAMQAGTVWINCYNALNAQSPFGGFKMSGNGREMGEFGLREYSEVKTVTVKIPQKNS
Chain of mALDH1a2 (Q62148 whole entry): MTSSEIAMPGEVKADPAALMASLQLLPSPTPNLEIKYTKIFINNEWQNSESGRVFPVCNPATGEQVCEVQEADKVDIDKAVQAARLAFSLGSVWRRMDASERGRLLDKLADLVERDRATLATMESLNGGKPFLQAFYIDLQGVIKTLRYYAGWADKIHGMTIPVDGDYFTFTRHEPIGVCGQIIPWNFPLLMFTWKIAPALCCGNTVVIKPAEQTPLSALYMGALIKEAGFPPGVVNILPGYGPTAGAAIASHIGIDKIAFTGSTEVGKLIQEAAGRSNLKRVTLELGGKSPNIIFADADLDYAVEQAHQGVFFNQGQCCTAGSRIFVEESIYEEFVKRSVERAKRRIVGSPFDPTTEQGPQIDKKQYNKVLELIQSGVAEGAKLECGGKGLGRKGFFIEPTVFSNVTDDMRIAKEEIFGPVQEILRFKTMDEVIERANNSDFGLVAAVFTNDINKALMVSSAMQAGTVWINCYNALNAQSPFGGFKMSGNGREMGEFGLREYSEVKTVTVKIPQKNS

| IC50 (mALDH1a2) [µM] | IC50 (hALDH1a2 [5]) [µM] | SMILES | tolerability [1, 8] | tumor growth [1, 8] | tumor growth (caliper measurement, tumor mass at endpoint) ([1]; single agent, once daily for 9 days, Compound 140 40 mg/kg intraperitoneal, MBE1.5 25 mg/kg daily equivalent in diet) | IC50 (hALDH1a2 [2]) | tumor growth, combined treatment with anti-PD-1 antibody ([3]; 40 mg/kg daily equivalent oral medicated diet plus anti-PD-1 200 microgram i.p. Day 11, 14, 18, 21) | tumor growth as a single agent [3] | tumor growth as a single agent ([3]; listed as compound 140) | IC50 (hALDH1a3) | tumor growth (caliper measurement, tumor mass at endpoint) [4] | efficacy in conjunction with paclitaxel [6] | cage side observations, adverse reactions ([7]; 0 hours to 24 hours post-dosing, mice) | plasma half-life, IV bolus dosing ([7]; male CD-1/C57BL/6 mice, 1 mg/kg intravenous) [h] | plasma half-life, PO oral gavage dosing ([7]; male CD-1/C57BL/6 mice, 10 mg/kg oral gavage) [h] | oral bioavailability ([7]; male CD-1/C57BL/6 mice, 10 mg/kg oral gavage, 1 mg/kg intravenous) [%] | time plasma concentrations exceed 5-fold the IC50 ([7]; oral gavage (PO) and intravenous (IV) administration, n=3 mice per group) [h] |
| --- | --- | --- | --- | --- | --- | --- | --- | --- | --- | --- | --- | --- | --- | --- | --- | --- | --- |
| 0.096 | 0.099 | CCc1cnccc1C(=O)Nc1cc(C)c2c(c1)CCC(=O)N2 [Compound 140, 3-ethyl-N-(8-methyl-2-oxo-3,4-dihydro-1H-quinolin-6-yl)pyridine-4-carboxamide] | excellent tolerability | successful inhibition of tumor growth | successful inhibition of tumor growth as a single agent | 0.0276 µM and < 0.05 µM | synergy with anti-PD-1 antibody in causing tumor regression | successful inhibition of tumor growth as a single agent | inhibits tumor growth as a single agent | 0.00697 µM and < 0.05 µM | successful inhibition of tumor growth as a single agent |  |  |  |  |  |  |
|  |  | CCc1cnccc1C(=O)Nc1cc2c(cc1F)NC(=O)CC2 [MBE1] |  |  |  | 1.67 µM |  |  |  | 0.00367 µM |  | effective in treating established metastatic diseases | no adverse reactions | 1.79 | 1.37 | 88 | > 10 |
